The values below are quoted from earlier work in patent publication US20080153925A1, “Use of Amphiphilic Copolymers as Solubilising Agents” (BASF Aktiengesellschaft, priority 2004, published 2008).

For this series the following is noted: literature values.

≈ marks a conversion by molar mass, not a printed value.

As for `CCCCC(CC)COC(=O)c1ccc(Nc2nc(Nc3ccc(C(=O)OCC(CC)CCCC)cc3)nc(Nc3ccc(C(=O)OCC(CC)CCCC)cc3)n2)cc1` (centres unmarked) [Uvinul ® T150, tris(2-ethylhexyl) 4,4′,4″-(1,3,5-triazine-2,4,6-triyltriimino)trisbenzoate], the “Solubility in water (without copolymer)” value is 0.007 mg/L (≈ 0.0085 µM). `Nc1ccc(S(=O)(=O)Nc2nccs2)cc1` [Sulfathiazole]: the “Solubility in water (without copolymer)” value was 445 mg/L (≈ 1740 µM).
